“And” between values parts separate entries of the source, which are not always exact repeats. Equal entries are not always repeated.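 Test compounds were applied to cells in 96-well plates for 48 hours at 5 doses. GI50 = concentration required for 50% inhibition of growth. Definition used: TGI = concentration required for complete inhibition of growth.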
Assays:
Experiment in all cases: growth of human tumour cells (NCI), 48 h
[1] = test system: 786-0 renal
[2] = test system: DU-145 prostate
[3] = test system: EKVX NSCLC
[4] = test system: HOP-62 NSCLC
[5] = test system: KM12 colon
[6] = test system: MCF7 breast
[7] = test system: MDA-MB-231 breast
[8] = test system: OVCAR-3 ovarian
[9] = test system: OVCAR-8 ovarian
[10] = test system: SNB-19 CNS

SMILES	GI50 [1]	TGI [1] [µM]	GI50 [2]	TGI [2] [µM]	GI50 [3] [µM]	TGI [3]	GI50 [4] [µM]	TGI [4] [µM]	GI50 [5] [µM]	TGI [5]	GI50 [6]	GI50 [7] [µM]	TGI [7] [µM]	GI50 [8] [µM]	TGI [8]	GI50 [9] [µM]	TGI [9]	GI50 [10]	TGI [10]	TGI [6]
CN1c2ccccc2C(C)(C)C12C=Cc1cc(O)ccc1O2 (stereo not drawn)	2.77 µM	8.96	2.56 µM	8.17	3.66	14.5 µM	3.44	10.6	2.31	6.2 µM	3.52 µM	3.93	16.3	2.16	5.23 µM	3.16	12.9 µM	2.94 µM	8.46 µM	–
Cc1cc(N(CCNc2ccnc3cc(Cl)ccc23)Cc2ccco2)nc(Cl)n1	1.57 µM	2.91	1.99 µM	4.15	1.61	3.58 µM	1.68	3.38	1.89	3.95 µM	1.65 µM	1.68	3.24	1.61	3.01 µM	2.06	4.42 µM	1.91 µM	3.74 µM	3.32 µM
C[C@@H](CO)[C@@H]1CCC=C2CC[C@]3(C)[C@H](CC[C@@H]4[C@@]5(C)CCCNC(C)(C)[C@@H]5CC[C@]43C)[C@H]21	1.93 µM	3.82	3.36 µM	11.3	4.18	17.3 µM	2.08	4.21	1.97	4.09 µM	1.49 µM	1.94	4.03	2.16	4.87 µM	2.02	4.1 µM	2.03 µM	4.15 µM	3.02 µM
COC(=O)CCCC(=O)O	–	> 100	–	> 100	–	> 100 µM	–	> 100	–	> 100 µM	–	–	> 100	–	> 100 µM	–	> 100 µM	–	> 100 µM	> 100 µM
COc1ccc2c(c1)n([O-])c1ccccc1[n+]2=O	43 µM and 21.4 µM	> 100	29.3 µM and 12.2 µM	> 100	–	> 100 µM and 55.1 µM	–	> 100	–	> 100 µM and 46.2 µM	20.3 µM and 8.97 µM	–	> 100	–	> 100 µM and 58.7 µM	–	> 100 µM and 55.7 µM	51.6 µM and 20 µM	> 100 µM and 89.6 µM	> 100 µM and 36 µM
CN(CC(=O)N(Cc1ccc(C2CCCCC2)cc1)c1ccc(C(=O)O)c(O)c1)S(=O)(=O)c1c(F)c(F)c(F)c(F)c1F	8.88 µM	23.8	15.6 µM	29	15.7	29.8 µM	13.4	30.4	19	33.7 µM	3.56 µM	1.86	4.13	9.95	23.3 µM	7.11	20.5 µM	11.3 µM	25.1 µM	15.1 µM
COc1cc2c(cc1C)NC(=O)/C2=C\c1cccc(Oc2ccccc2)c1	13.2 µM	25.9	13.5 µM	27	15.4	41.7 µM	–	–	14.3	34.6 µM	6.73 µM	16.3	37.4	13.2	26.8 µM	25.1	> 100 µM	14.3 µM	28.1 µM	24 µM
CN(C)c1ccc(Nc2cc(-c3cccc(OC(F)(F)F)c3)nc3ccc(N4CCCC4)cc23)cc1	1.71 µM	3.24	2.82 µM	7.91	2.16	6.05 µM	1.67	3.22	–	–	1.86 µM	1.76	3.23	1.74	3.14 µM	–	–	3.32 µM	13.7 µM	4.61 µM
COc1ccc(-c2nc3ccccn3c2/C=C/C(=O)c2cc(OC)c(OC)c(OC)c2)cc1	3.9 µM	> 100	7.21 µM	41.1	7.42	> 100 µM	36.2	> 100	4.99	> 100 µM	2.38 µM	5.22	> 100	2.88	9.67 µM	3.92	> 100 µM	25.2 µM	> 100 µM	21.4 µM
Nc1nc(-c2ccccc2)nc(N)c1N=O	13.2 µM	27.1	9.5 µM	21.6	20.1	> 100 µM	12.8	30.5	4.58	16.9 µM	5.85 µM	12.6	28.9	4.17	14 µM	7.55	53.7 µM	14.4 µM	33 µM	27.1 µM
O=C1c2ccccc2C(=O)c2c1ccc(C1C(=O)c3ccccc3C1=O)c2-c1c(C2C(=O)c3ccccc3C2=O)ccc2c1C(=O)c1ccccc1C2=O	–	> 100	–	> 100	–	> 100 µM	–	> 100	–	> 100 µM	–	–	> 100	–	> 100 µM	–	> 100 µM	–	> 100 µM	> 100 µM
CCCCCCCCCc1cccc(N2C(N)=NC(N)=NC2(C)C)c1	–	1.3	–	8.4	–	10.5 µM	–	1.24	–	–	–	–	3.37	–	0.193 µM	–	16 µM	–	–	> 100 µM
O=[N+]([O-])c1c(Br)sc(Br)c1[N+](=O)[O-]	1.73 µM	3.25	6.8 µM	19.6	9.3	23.8 µM	3.25	11.3	10.1	22 µM	2.2 µM	2.32	6.19	1.71	3.2 µM	2.39	7.08 µM	13.4 µM	27.9 µM	7.65 µM
Nc1nc(-c2ccc(F)cc2)c(-c2ccc3ncccc3n2)s1	16.9 µM	> 25	14.1 µM	> 25	11.2	> 25 µM	24.9	> 25	> 25	> 25 µM	9 µM	> 25	> 25	12.7	> 25 µM	15.6	> 25 µM	> 25 µM	> 25 µM	> 25 µM
COc1cc(OC)c(/C=C/c2cnc3ccccc3n2)c(OC)c1	–	> 10	–	> 10	–	> 10 µM	–	> 10	–	> 10 µM	–	–	> 10	–	> 10 µM	–	> 10 µM	–	> 10 µM	> 10 µM
COc1cc2c(cc1Nc1nc(Nc3ccsc3C(N)=O)c3cc[nH]c3n1)N(C(=O)CN(C)C)CCC2(C)C	3.06 µM	6.82	2.88 µM	5.96	0.453	4.97 µM	1.65	5.3	0.647	2.61 µM	< 0.0025 µM	3.22	7.42	2.05	5.17 µM	1.64	5.69 µM	3.62 µM	7.1 µM	2.97 µM
Cc1cccc2c(=O)c3c(sc12)c(NCCNCCO)nc1ccccc13	1.83 µM	3.51	1.68 µM	3.12	1.5	2.92 µM	1.28	2.87	1.64	3.19 µM	1.24 µM	1.23	2.62	1.55	2.99 µM	–	–	–	–	2.72 µM
Cc1c(COc2cc(OCc3cccc(C#N)c3)c(CN3C[C@H](O)C[C@@H]3C(=O)O)cc2Cl)cccc1-c1ccc2c(c1)OCCO2	3.87 µM	15.3	24.4 µM	62.1	18.1	41.2 µM	19.8	38.6	16.1	30.3 µM	4.66 µM	13.8	29.6	–	–	27.1	> 100 µM	15.6 µM	29 µM	19.3 µM
CC1OC(OC2C(O[C@H]3CC[C@@]4(C)C(=CC[C@H]5[C@@H]6C[C@@H]7O[C@]8(CC[C@H](C)CN8)[C@@H](C)[C@@H]7[C@@]6(C)CC[C@@H]54)C3)OC(CO)C(O)C2OC2OC(CO)C(O)C(O)C2O)C(O)C(O)C1O (stereo partly drawn)	–	51	–	33.6	–	32.3 µM	–	–	–	34.9 µM	–	–	38.8	–	–	–	31.1 µM	–	35.6 µM	32.9 µM
Cn1ccnc1C(=O)/C=C/c1ccccc1	4.34 µM	16.6	2.8 µM	12.7	11.6	25.1 µM	4.44	14.4	3.06	12.5 µM	1.27 µM	3.39	16.8	3.22	8.5 µM	2.59	6.94 µM	–	–	6.77 µM
COc1ccc(Nc2c3ccccc3nc3ccccc23)cc1	3.85 µM	16.7	2.43 µM	12.3	–	–	1.27	14.4	1.33	15 µM	0.409 µM	2.58	19.3	1.43	5.78 µM	1.89	16.7 µM	3.19 µM	18.3 µM	13 µM
